Results taken from US20250170172A1, “METHODS FOR TREATING LENTIVIRUS INFECTION” (Jericho Sciences, LLC, priority 2022, published 2025).

Columns and labels:
[1] = system: Japanese encephalitis virus (JEV); details: cited from earlier work
[2] = system: dengue virus; details: cited from earlier work
[3] = system: zinc binding domain of nucleocapsid protein peptide; assay: MALDI-TOF competitive binding to nucleocapsid protein peptide in presence of zinc; parameters: species or system HIV; details: equimolar ~2×10^−4 Molar in saline, with and without zinc
Method: FIG. 1 illustrates in vitro competitive binding of FX101 to the zinc binding domain of nucleocapsid protein peptide in the presence of zinc ions using Matrix-assisted laser desorption ionization (MALDI)—time of flight (TOF) analyses. Mixtures were prepared in equimolar concentrations of ˜2×10^−4 Molar solutions in saline. […] Mass Spectrometer: Voyager DE STR (Applied Biosystems). Software: Voyager Instrument Control Panel (v 5.1) and Data Explorer (v4.0) Instrument Method: (a) ACTH_Reflector_Aug24_2010; Accelerating voltage 25000; Grid voltage 63.8%; Mirror voltage ratio1.12, Laser Rep Rate 20.0 Hz Band width 500: Vertical Scale 50, Bin size 0.5: Acquisition mass range 800-4000 Da; Delay 155, 165, or […], Laser Intensity 1480-1590. (b) angiotensine.bic, 75 nsec delay time Calibration: C1 or C2 standards in DHB matrix. Matrix: DHB (Laser BioLabs, France), 10 mg/ml in (a) 50% acetonitrile/50% water-0.1% TFA/50% water, no TFA, and (b) 50% ethanol/50% water, no TFA. Spotted: 0.5 μL sample.
The nucleocapsid protein (NC) of HIV is an established but elusive therapeutic target for HIV infection. Currently available antiretroviral drugs predominately target viral enzymes involved in replication, including reverse transcriptase, integrase and protease. Recently, a new drug class targeting the structural capsid protein has been approved. […]

[4] = system: SIVmac251; assay: Plasma viremia by TAQMAN RT-PCR in SIVmac251-infected Rhesus macaques; assay type: in vivo, Rhesus macaque (Macaca Mulatta); details: monotherapy 3.0 mg/kg 3 times weekly, subcutaneous
Method: Twenty-four specific pathogen-free (SPF), all male, Rhesus macaque (Macaca Mulatta) nonhuman primates (NHPs) of Indian origin were utilized for this study. The animals were tested to be free from simian type D retrovirus (SRV), simian immunodeficiency virus (SIV), simian T-cell lymphotropic/leukemia virus (STLV) and Cercopithecine herpesvirus 1 (CHV-1) at study initiation. All animals were pre-screened as negative for the protective MHC class I alleles Mamu-A*01, Mamu-B*08, and Mamu-B*17 since these alleles are associated with elite control of SIV infection. All animal studies were approved by the appropriate Institutional Animal Care and Use Committee (IACUC).
Inoculation of NHPs with SIVmac251. […] Each animal was subsequently monitored.
The twenty-four (24) SIVmac251-infected Rhesus macaques were divided into four groups: (1) sham-treated controls (vehicle only); (2) FX101-treated; (3) combination antiretroviral therapy (cART)-treated and (4) FX101 plus cART-treated. […] Comparative evaluations between groups were determined to evaluate whether FX101 alone and/or in combination with cART safely reduces virus in plasma, CSF, tissue reservoirs and/or sanctuary sites. […] Comparative longitudinal clinical measures were assessed to evaluate the safety profile. […]
Determination of plasma and CSF Viral RNA Levels. The amount of RNA copies per ml was determined using a TAQMAN assay. […]

[5] = system: IL-21 mRNA positive cells; assay: IL-21 mRNA positive cell frequency in lymph node and spleen by FISH; assay type: in vivo, Rhesus macaque (Macaca Mulatta); details: FX-only treated animals; lymph nodes and spleen
Method: (§1) The higher Tier 2 antibody productions indicated differences in germinal center capacities, so we performed (blinded) histochemical evaluation of axillary lymph node and spleen tissues collected at necropsy. Tissues were evaluated using fluorescent in situ hybridization (FISH) probes for each, IL-21 mRNA and SIV mRNA. Cells (stained with 4′,6-diamidino-2-phenylindole) were designated either positive or negative for each hybridization label. The frequency of positive cells was determined by dividing the positive signal by the total number of cells in the field of vision.
Immunohistochemistry and in situ hybridization of lymph node and spleen tissues collected at termination. Five μm formalin fixed paraffin embedded tissues sections were mounted on Superfrost Plus Microscope slides, baked overnight at 60° C. and passed through xylene, graded ethanol, and double distilled water to remove paraffin and rehydrate tissue sections. A microwave was used for heat induced epitope retrieval (HIER). […]
(§2) Quantification of fluorescent immunohistochemistry and in situ hybridization. […] Whole slide images were analyzed using HALO image analysis software v3.1 (Indica Labs, Albuquerque, NM). […] When quantifying SIV infected cells, areas with a dendritic pattern were excluded from the analysis. […] Comparison of treatment groups was assessed using a Mann-Whitney Test (2-tailed, nonparametric)

[6] = Safety assessment in SIV-infected Rhesus macaques (blood counts, clinical chemistries, flow cytometry, necropsy, histochemistry); assay type: in vivo, Rhesus macaque (Macaca Mulatta); details: 3 mg/kg, 3 times weekly for up to 24 weeks, subcutaneous
Method: Antiviral treatments were initiated at 10 weeks post-infection after the initial inflammatory response had subsided. All drug treatments were administered subcutaneously to avoid repeated sedations of the animals. The control animals received vehicle only (10% dimethylsulfoxide in phosphate buffered saline, DMSO/PBS). The dual-treated group received equal dosing amounts and frequencies of FX101 (3.0 mg/kg, 3× weekly) and cART (daily); the cART treatment group received two nucleo(t/s)ide RT inhibitors (NRTIs), emtricitabine (FTC, 50 mg/kg) and tenofovir disoproxil fumarate (TDF, tenofovir prodrug, 5.1 mg/kg) plus one integrase strand transfer inhibitor (INSTI), dolutegravir (DTG, 2.5 mg/kg). […] Therapeutic cART treatments were administered for up to 24 total weeks, with animals followed for up to 27 weeks post cART cessation (˜1 year post infection). All animals were monitored daily for signs of adverse events during the study.
Safety was assessed by complete blood chemistries, clinical chemistries, flow cytometry, gross necropsies and histochemical tissue imaging. There were no apparent drug-related adverse events between treatment arms across these measures over the study timeline. However, since all the animals were SIV-infected, measures and observations outside of normal healthy expected ranges occurred. […]

[7] = system: SIV mRNA positive cells; assay: SIV mRNA positive cell frequency in lymph node and spleen by FISH; assay type: in vivo, Rhesus macaque (Macaca Mulatta); details: FX-only treatment group
Method: as §1, with “vision. […]” for “vision.”
as §2
The frequency of SIV positive cells per million cells was determined using fluorescent in situ hybridization (FISH) as described in Example 8. […]

Row | Compound | inhibition of Japanese encephalitis virus (JEV) infection [1] | inhibition of dengue virus infection [2] | binding to the nucleocapsid protein zinc domain peptide [3] | direct virus replication inhibition, plasma viremia during the treatment period [4] | frequencies of IL-21 mRNA positive cells versus control animals [5] | adverse events / tolerability [6] | frequencies of virus in spleen and lymph nodes relative to the cART group [7]
1 | c1ccc(CN(CCN(Cc2ccccn2)Cc2ccccn2)Cc2ccccn2)nc1 [TPEN, N,N,N′,N′-tetrakis(2-pyridinylmethyl)-1,2-ethanediamine] | inhibits dengue virus and Japanese encephalitis virus (JEV) infection | inhibits dengue virus | – | – | – | – | –
2 | [NH2][Pt]([NH2])([Cl])([Cl])([Cl])[N+](=O)[O-] [FX101] | – | – | binds to the peptide, even in the presence of zinc | no apparent direct virus replication inhibiting activities | higher than for the control animals in both lymph nodes and spleen | safe and well tolerated | very low frequencies of virus in both spleen and lymph nodes
